Results reported in US12435060B2, “Acylamino bridged heterocyclic compound, and composition and application thereof” (BEIJING SCITECH-MQ PHARMACEUTICALS LIMITED, priority 2019, dated 2025).

System: HT29 cells
Assay: Inhibition of cell necrosis (CCK8 method), induced programmed necrosis of HT29 cells
Format: cell-based
Conditions: Homo sapiens, HT-29; rescue from necrosis induced by TNF-α 20 ng/mL, AT-406 1 μM, Z-VAD-FMK 20 μM; 16-20 hours; CCK-8, OD 450 nm
How it was run: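 HT29 cells in McCOY's 5A with 10% FBS were pre-treated for 30 min with compound (9 fourfold steps, 25000 to 0.38 nM final, 0.25% DMSO). Necrosis was then induced with TNF-α 20 ng/mL, AT-406 1 μM and Z-VAD-FMK 20 μM for 16-20 h. Viability was read by CCK-8 OD450, normalized between uninduced and induced wells, and IC50 was curve-fitted.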

| Compound | IC50 [nM] |
| --- | --- |
| Cc1ncc(OCCOC(C)C)cc1-c1ccnc(NC(=O)c2nnc(Cc3ccccc3)[nH]2)c1 [Example 132, 5-benzyl-N-(5-(2-isopropoxyethoxy)-2-methyl-[3,4′-dipyridine]-2′-yl)-4H-1,2,4-triazole-3-carboxamide] | 100 to 1000 |
| Cc1ccc(OCCOC(C)C)cc1-c1ccnc(NC(=O)c2nnc(Cc3ccccc3)[nH]2)c1 [Example 133, 5-benzyl-N-(4-(5-(2-isopropoxyethoxy)-2-methylphenyl)pyridin-2-yl)-4H-1,2,4-triazole-3-carboxamide] | ≤ 100 |
| Cc1ccc(OCCN(C)C)cc1-c1ccnc(NC(=O)c2nnc(Cc3ccccc3)[nH]2)c1 [Example 134, 5-benzyl-N-(4-(5-(2-(dimethylamino)ethoxy)-2-methylphenyl)pyridin-2-yl)-4H-1,2,4-triazole-3-carboxamide] | 100 to 1000 |
| CCN(CC)CCOc1ccc(C)c(-c2ccnc(NC(=O)c3nnc(Cc4ccccc4)[nH]3)c2)c1 [Example 135, 5-benzyl-N-(4-(5-(2-(diethylamino)ethoxy)-2-methylphenyl)pyridin-2-yl)-4H-1,2,4-triazole-3-carboxamide] | ≤ 100 |
| Cc1ccc(OCCN2CCN(C)CC2)cc1-c1ccnc(NC(=O)c2nnc(Cc3ccccc3)[nH]2)c1 [Example 136, 5-benzyl-N-(4-(2-methyl-5-(2-(4-methylpiperazin-1-yl)ethoxy)phenyl)pyridin-2-yl)-4H-1,2,4-triazole-3-carboxamide] | ≤ 100 |
| Cc1ccc(OCCC2OCCO2)cc1-c1ccnc(NC(=O)c2nnc(Cc3ccccc3)[nH]2)c1 [Example 137, N-(4-(5-(2-(1,3-dioxolan-2-yl)ethoxy)-2-methylphenyl)pyridin-2-yl)-5-benzyl-4H-1,2,4-triazole-3-carboxamide] | ≤ 100 |
| Cc1ccc(OCCCC(F)(F)F)cc1-c1ccnc(NC(=O)c2nnc(Cc3ccccc3)[nH]2)c1 [Example 138, 5-benzyl-N-(4-(2-methyl-5-(4,4,4-trifluorobutoxy)phenyl)pyridin-2-yl)-4H-1,2,4-triazole-3-carboxamide] | ≤ 100 |
| Cc1ccc(OCCCN(C)C)cc1-c1ccnc(NC(=O)c2nnc(Cc3ccccc3)[nH]2)c1 [Example 139, 5-benzyl-N-(4-(5-(3-(dimethylamino)propoxy)-2-methylphenyl)pyridin-2-yl)-4H-1,2,4-triazole-3-carboxamide] | > 10000 |
| Cc1ccc(OCCCO)cc1-c1ccnc(NC(=O)c2nnc(Cc3ccccc3)[nH]2)c1 [Example 140, 5-benzyl-N-(4-(5-(3-hydroxylpropoxy)-2-methylphenyl)pyridin-2-yl)-4H-1,2,4-triazole-3-carboxamide] | ≤ 100 |
| COCCCOc1ccc(C)c(-c2ccnc(NC(=O)c3nnc(Cc4ccccc4)[nH]3)c2)c1 [Example 141, 5-benzyl-N-(4-(5-(3-methoxypropoxy)-2-methylphenyl)pyridin-2-yl)-4H-1,2,4-triazole-3-carboxamide] | ≤ 100 |
| COCCCOc1ccc(C)c(-c2ccnc(NC(=O)c3nnc(C(C)c4ccccc4)[nH]3)c2)c1 (centres unmarked) [Example 142, N-(4-(5-(3-methoxypropoxy)-2-methylphenyl)pyridin-2-yl)-5-(1-phenylethyl)-4H-1,2,4-triazole-3-carboxamide] | 100 to 1000 |
| COCCCOc1ccc(C)c(-c2ccnc(NC(=O)c3nnc(C(C)c4ccccc4)o3)c2)c1 (centres unmarked) [Example 143, N-(4-(5-(3-methoxypropoxy)-2-methylphenyl)pyridin-2-yl)-5-(1-phenylethyl)-1,3,4-oxadiazol-2-carboxamide] | 100 to 1000 |
| COCCCOc1ccc(C)c(-c2ccnc(NC(=O)c3nnc(CC4CCCC4)[nH]3)c2)c1 [Example 144, 5-(cyclopentylmethyl)-N-(4-(5-(3-methoxypropoxy)-2-methylphenyl)pyridin-2-yl)-4H-1,2,4-triazole-3-carboxamide] | ≤ 100 |
| COCCCOc1ccc(C)c(-c2ccnc(NC(=O)c3nnc(CC4CCCCC4)[nH]3)c2)c1 [Example 145, 5-(cyclohexylmethyl)-N-(4-(5-(3-methoxypropoxy)-2-methylphenyl)pyridin-2-yl)-4H-1,2,4-triazole-3-carboxamide] | ≤ 100 |
| COCCCOc1ccc(C)c(-c2ccnc(NC(=O)c3nnc(Cc4ccccc4)s3)c2)c1 [Example 146, 5-benzyl-N-(4-(5-(3-methoxypropoxy)-2-methylphenyl)pyridin-2-yl)-1,3,4-thiodiazol-2-carboxamide] | 1000 to 10000 |
| CCOCCCOc1ccc(C)c(-c2ccnc(NC(=O)c3nnc(Cc4ccccc4)[nH]3)c2)c1 [Example 147, 5-benzyl-N-(4-(5-(3-ethoxypropoxy)-2-methylphenyl)pyridin-2-yl)-4H-1,2,4-triazole-3-carboxamide] | ≤ 100 |
| Cc1ccc(OCCCC#N)cc1-c1ccnc(NC(=O)c2nnc(Cc3ccccc3)[nH]2)c1 [Example 148, 5-benzyl-N-(4-(5-(3-cyanopropoxy)-2-methylphenyl)pyridin-2-yl)-4H-1,2,4-triazole-3-carboxamide] | ≤ 100 |
| C=CCCCOc1ccc(C)c(-c2ccnc(NC(=O)c3nnc(Cc4ccccc4)[nH]3)c2)c1 [Example 149, 5-benzyl-N-(4-(2-methyl-5-(pent-4-en-1-yloxy)phenyl)pyridin-2-yl)-4H-1,2,4-triazole-3-carboxamide] | ≤ 100 |
| CSCCCCOc1ccc(C)c(-c2ccnc(NC(=O)c3nnc(Cc4ccccc4)[nH]3)c2)c1 [Example 150, 5-benzyl-N-(4-(2-methyl-5-(4-(methylthio)butoxy)phenyl)pyridin-2-yl)-4H-1,2,4-triazole-3-carboxamide] | ≤ 100 |
| Cc1ccc(OCCCCO)cc1-c1ccnc(NC(=O)c2nnc(Cc3ccccc3)[nH]2)c1 [Example 151, 5-benzyl-N-(4-(5-(4-hydroxybutoxy)-2-methylphenyl)pyridin-2-yl)-4H-1,2,4-triazole-3-carboxamide] | ≤ 100 |
| COCCCCOc1ccc(C)c(-c2ccnc(NC(=O)c3nnc(Cc4ccccc4)[nH]3)c2)c1 [Example 152, 5-benzyl-N-(4-(5-(4-methoxybutoxy)-2-methylphenyl)pyridin-2-yl)-4H-1,2,4-triazole-3-carboxamide] | ≤ 100 |
| Cc1ccc(OCCCCCO)cc1-c1ccnc(NC(=O)c2nnc(Cc3ccccc3)[nH]2)c1 [Example 153, 5-benzyl-N-(4-(5-((5-hydroxylpentyl)oxy)-2-methylphenyl)pyridin-2-yl)-4H-1,2,4-triazole-3-carboxamide] | ≤ 100 |
| Cc1ccc(OCCCCCCCCO)cc1-c1ccnc(NC(=O)c2nnc(Cc3ccccc3)[nH]2)c1 [Example 154, 5-benzyl-N-(4-(5-((8-hydroxyoctyl)oxy)-2-methylphenyl)pyridin-2-yl)-4H-1,2,4-triazole-3-carboxamide] | ≤ 100 |
| Cc1ccc(OC2CC2)cc1-c1ccnc(NC(=O)c2nnc(Cc3ccccc3)[nH]2)c1 [Example 155, 5-benzyl-N-(4-(5-cyclopropoxy-2-methylphenyl)pyridin-2-yl)-4H-1,2,4-triazole-3-carboxamide] | 100 to 1000 |
| Cc1ccc(OC2CCC2)cc1-c1ccnc(NC(=O)c2nnc(Cc3ccccc3)[nH]2)c1 [Example 156, 5-benzyl-N-(4-(5-cyclobutoxy-2-methylphenyl)pyridin-2-yl)-4H-1,2,4-triazole-3-carboxamide] | 100 to 1000 |
| Cc1ccc(OCCCC(N)=O)cc1-c1ccnc(NC(=O)c2nnc(Cc3ccccc3)[nH]2)c1 [Example 157, N-(4-(5-(4-amino-4-oxobutoxy)-2-methylphenyl)pyridin-2-yl)-5-benzyl-4H-1,2,4-triazole-3-carboxamide] | 100 to 1000 |
